We go through four compounds from paper PMC8175350, “Drug repurposing screens identify chemical entities for the development of COVID-19 interventions” (Nature Communications, 2021).

For data set [1], the system named is COVID-19. Conditions: ref [9]; cited from earlier work.
Data set [2] is described as follows: in vitro. Conditions: human.
In data set [3] the test system is SARS-CoV-2. As to the kind of experiment: microbe, parasite or virus in culture. The class given is cell-based. Particulars: for EC50: Severe acute respiratory syndrome coronavirus 2, Calu-3, read-out: Calu-3 CoV-2 EC50 GeoMean.
Data set [4] concerns SARS-CoV-2. The experiment in a line: microbe, parasite or virus in culture. Particulars: for EC50: read-out: HeLa-ACE2 TOA CoV-2 EC50 GeoMean. The class given is cell-based.
For data set [5], the system named is HepG2. Particulars: human, 72 h.
For data set [6], the system named is HeLa-ACE2 cells. As to the kind of experiment: cells. Particulars: Homo sapiens.
For data set [7], the system named is SARS-CoV-2. As to the kind of experiment: microbe, parasite or virus in culture. The class given is cell-based. Conditions: for Emax: Severe acute respiratory syndrome coronavirus 2, HeLa-ACE2, 24 h, read-out: HeLa-ACE2 CoV-2 Sinf Average; for EC50: read-out: HeLa-ACE2 CoV-2 EC50 GeoMean; for HeLa-ACE2 SI: selectivity index, uninfected HeLa-ACE2 CC50 / SARS-CoV-2 EC50.

Data set [8] relates to Calu-3 cells. As to the kind of experiment: cells. Particulars: Homo sapiens.
For data set [9], the system named is HEK293T. Conditions: human, 72 h.
Data set [10] is described as follows: in vitro. Conditions: human. This is another data set of the same source.
The subject of data set [11] is HeLa-ACE2 cells. The experiment in a line: cells. It counts as cell-based, human. Conditions: Homo sapiens, HeLa-ACE2; read-out: HeLa-ACE2 TOA cell count EC50 GeoMean.
In data set [12] the test system is HeLa-ACE2 cells. As to the kind of experiment: Uninfected HeLa-ACE2 24 h live/dead cytotoxicity counter screen. The class given is cell-based, human. A general note: Counterscreens check selectivity or assay interference.
Assay in data set [13]: as above
The class given is cell-based, human. Conditions: human, uninfected HeLa-ACE2 cells, read-out: HeLa-ACE2 uninfected cytotoxicity CC50 GeoMean.

The subject of data set [14] is Calu-3 cells.
A short description of data set [15]: in vitro. Conditions: human, Calu-3 uninfected cytotoxicity CC50 GeoMean.
In data set [16] the test system is SARS-CoV-2. The class given is cell-based. Particulars: combination with remdesivir.
The subject of data set [17] is HeLa-ACE2 cells. As to the kind of experiment: Total cell count in the HeLa-ACE2 TOA (time of addition) assay. It counts as cell-based, human. Conditions: Homo sapiens, HeLa-ACE2; read-out: HeLa-ACE2 TOA cell count EC50 GeoMean.
[18] abbreviates: Severe acute respiratory syndrome coronavirus 2, HeLa-ACE2, detail block.
Where [19] appears, read: curve plateau at infinite concentration.
The mark [20] stands for this setting: Severe acute respiratory syndrome coronavirus 2, HeLa-ACE2, detail column.
[21] abbreviates: HeLa-ACE2, read-out: HeLa-ACE2 cell count EC50 GeoMean.
[22] abbreviates: Calu-3, read-out: Calu-3 cell count EC50 GeoMean.

Where two headings read alike, the source gives them in different places. Residues, ends and D or L forms follow the SMILES beside them. *: point of attachment. Cbz = O=C(OCc1ccccc1)*; CHN2 = [N-]=[N+]=C*

interferon: the “mortality of hospitalized COVID-19 patients” value in data set [1] was “failed to reduce mortality”.
In the case of `Oc1ccc(Nc2ccnc3cc(Cl)ccc23)cc1CN1CCCC1` [Amopyroquine], the CC50 at 72 h in data set [2] stood at 6.31 µM; in [10], 6.39 µM. Moreover, the Emax in data set [3] (Severe acute respiratory syndrome coronavirus 2, Calu-3, 48 h, curve plateau at infinite concentration, read-out: Calu-3 CoV-2 Sinf Average) turned out to be 100%; in data set [4] (Severe acute respiratory syndrome coronavirus 2, HeLa-ACE2, 10 h, curve plateau at infinite concentration, read-out: HeLa-ACE2 TOA CoV-2 Sinf Average), 100%; in data set [7] (setting [19]) it was 100%. Also, the EC50 (commonly the concentration at which the effect is half-maximal) in [3] (detail block) is over 9.98 µM; in [4] (setting [18]) it was over 9.59 µM; in data set [6] (HeLa-ACE2, read-out: HeLa-ACE2 cell count EC50 GeoMean, detail block), over 9.59 µM; in data set [7] (setting [18]), 0.904 µM; in [8] (Calu-3, read-out: Calu-3 cell count EC50 GeoMean, detail block), over 9.98 µM; in [11], over 9.59 µM. Also, in data set [3] (selectivity index, uninfected Calu-3 CC50 / Calu-3 SARS-CoV-2 EC50), the “Calu-3 SI” value was determined as 1.87. In addition, in data set [4] (TOA EC50 / HeLa-ACE2 SARS-CoV-2 EC50), the “TOA:HeLa-ACE2 EC50 Ratio” value amounted to 10.603. Moreover, in data set [5], the “HepG2 72-hour cytotoxicity Sinf Average” value is recorded as -102%. The “HeLa-ACE2 SI” value in data set [7] is listed as 19.02. Moreover, in data set [9], the “HEK293T 72-hour cytotoxicty Sinf Average” value was -103%. The “HeLa-ACE2 uninfected cytotoxicity Sinf Average” value in data set [12] (setting [19]) is given as -100%. The CC50 at 24 h in data set [13] (detail block) stood at 17.2 µM. Moreover, the “uninfected Calu-3 CC50” value in [14] is on record as 18.669 ×÷ 1.171 (n=3) μM. Besides, the “Calu-3 uninfected cytotoxicity Sinf Average” value in data set [14] (human, 48 h) is reported as -96%. Besides, in [15], the CC50 at 48 h turned out to be 18.7 µM.
On to `CCOC(=O)[C@@H]1O[C@H]1C(=O)N[C@@H](CC(C)C)C(=O)N1CCN(Cc2ccc(OC)c(OC)c2OC)CC1` [NCO 700], for which the CC50 at 72 h in [2] and in data set [10] was over 39.8 µM in each case. For the same compound, the EC50 in data set [3] was over 9.98 µM; in data set [4] (setting [20]), over 9.59 µM; in data set [6] (setting [21]) it was over 5.08 µM; in data set [7] (setting [20]), 0.79 µM; in data set [8] (setting [22]), over 9.98 µM; in data set [17], over 9.59 µM. In data set [4], the “TOA:HeLa-ACE2 EC50 Ratio” value was 12.146. Also, the Emax was -26% in [6] (HeLa-ACE2, 24 h, read-out: HeLa-ACE2 cell count Sinf Average) and 90% in [7]. The “HeLa-ACE2 SI” value in [7] is over 50.44. In addition, the “HeLa-ACE2 synergy score with remdesivi” value in [16] is given as 0.209 δ. Moreover, in [13], the CC50 at 24 h is over 39.8 µM. Also, in [14], the “uninfected Calu-3 CC50” value was > 29.867 ×÷ 1.001 (n=3) μM. Moreover, the CC50 at 48 h in data set [15] was over 29.9 µM.
Regarding `CC(C)CC(NC(=O)OCc1ccccc1)C(=O)NC(C(=O)NCC(=O)C=[N+]=[N-])C(C)C` (stereo not drawn) [Z LVG CHN2] (Cbz-Leu-Val-Gly-CHN2; configuration not given here), the CC50 at 72 h in [2] and in data set [10] was over 39.8 µM throughout. For the same compound, the EC50 is over 9.98 µM in data set [3]; over 9.59 µM in data set [4] (setting [20]); over 9.59 µM in data set [6] (setting [21]); 0.072 µM in data set [7] (setting [20]); over 9.98 µM in [8] (setting [22]); over 9.59 µM in data set [17]. For the same compound, the “TOA:HeLa-ACE2 EC50 Ratio” value in [4] worked out at 133.491. Also, the Emax in [7] was found to be 87%. For the same compound, in data set [7], the “HeLa-ACE2 SI” value is given as over 554.29. Also, the “HeLa-ACE2 uninfected cytotoxicity Sinf Average” value in [12] (human, uninfected HeLa-ACE2 cells, 24 h) is -100%. The CC50 at 24 h in data set [13] was over 39.8 µM. Further, the “uninfected Calu-3 CC50” value in [14] is > 29.867 ×÷ 1.001 (n=3) μM. In [15], this compound displayed a CC50 at 48 h of over 29.9 µM.
